Experimental findings from ChEMBL document CHEMBL1201862, “PubChem BioAssay data set” (2004) are described below.

Among the test systems are PC-3; MCF7; HCT-15; MOLT-4; HT-29; OVCAR-8; MDA-MB-435; HCC 2998; RXF 393; SF-539; HL-60; SF-268; SK-MEL-5; SF-295; Malme-3M; OVCAR-3; IGROV-1; EKVX; UACC-257; BT-549.
Assay in all cases: DTP human tumour cell line panel, 48 h

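Dose response: 5 concentrations. Exposure: 48 h. Format: 96-well plates. Endpoint: linear interpolation; highest concentration if not reached. GI50 is the concentration that inhibits growth by half.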 Active and inactive are the calls of the source. Cut-off read from the data, not from the text of the source: active = GI50 up to about 1.1 µM and inactive = higher.

As a reminder, the GI50 is the concentration giving 50% growth inhibition. Turning to `O=C1/C(=C/c2ccc(O)c(O)c2)CCC/C1=C\c1ccc(O)c(O)c1`, the GI50 in the assay with PC-3 was 3.98 µM (inactive); with MCF7 it was 5.16 µM (inactive); in the assay on HCT-15, 4.13 µM; in the assay with MOLT-4, 2.42 µM (inactive); with HT-29 it was 8.09 µM (inactive); with OVCAR-8, 2.07 µM (inactive). In addition, the GI50 was 2.91 µM (inactive) in the assay on MDA-MB-435; 4.12 µM (inactive) in the assay on HCC 2998; 2.62 µM (inactive) with RXF 393; 2.41 µM (inactive) with SF-539; 3.24 µM (inactive) in the assay on HL-60; 3.02 µM (inactive) in the assay with SF-268. For the same molecule, the GI50 in the assay with SK-MEL-5 was 1.67 µM (inactive); in the assay with SF-295 it was 8.07 µM (inactive); in the assay with Malme-3M, 2.46 µM (inactive); in the assay on OVCAR-3, 3.06 µM (inactive); in the assay with IGROV-1, 4.05 µM (inactive); with EKVX it was 14.3 µM (inactive). The GI50 in the assay on UACC-257 is 4.51 µM (inactive); in the assay with BT-549, 4.74 µM (inactive).

On to `CN1CCC/C1=C1\C(=O)c2cccn2C1=O`, for which the GI50 is > 100 µM (inactive) in the assay on PC-3; > 100 µM (inactive) with MCF7; above 100 µM in the assay on HCT-15; > 100 µM (inactive) with MOLT-4; > 100 µM (inactive) in the assay with HT-29; > 100 µM (inactive) in the assay with OVCAR-8. Further, the GI50 in the assay on MDA-MB-435, with HCC 2998, with RXF 393, in the assay with HL-60, in the assay with SF-268 and in the assay with SK-MEL-5 was > 100 µM (inactive) each time. The GI50 in the assay with SF-295, in the assay with Malme-3M, in the assay on OVCAR-3, in the assay with IGROV-1, with EKVX and with UACC-257 was > 100 µM (inactive) throughout. For the same molecule, the GI50 in the assay on BT-549 was > 100 µM (inactive).

As for `C=CCn1c(=O)c(C)cn(/C(=C/C(=O)OCC)C(=O)OCC)c1=O`, the GI50 with PC-3 was 14.8 µM (inactive); in the assay with MCF7, 4.34 µM (inactive); in the assay on HCT-15 it was 2.97 µM; with MOLT-4, 5.87 µM (inactive); in the assay with HT-29 it was 12.9 µM (inactive); in the assay on OVCAR-8, 17.6 µM (inactive). The GI50 was 13.5 µM (inactive) in the assay on MDA-MB-435; 17.4 µM (inactive) in the assay on HCC 2998; 14 µM (inactive) with RXF 393; 23.2 µM (inactive) in the assay on SF-539; 2.19 µM (inactive) in the assay on HL-60; 18.9 µM (inactive) with SF-268. Further, the GI50 with SK-MEL-5 is 18 µM (inactive); in the assay with SF-295 it was > 84.1 µM (inactive); in the assay on Malme-3M, 13.8 µM (inactive); in the assay on OVCAR-3, 9.66 µM (inactive); in the assay on IGROV-1, 16.4 µM (inactive); with EKVX it was 14 µM (inactive). The GI50 in the assay with UACC-257 is 20.5 µM (inactive); with BT-549, 16.2 µM (inactive).

`CC(OC(=O)C(CC(=O)OC(C)(C)C)NC(=O)OC(C)(C)C)C(=O)OCc1ccccc1` (stereo unspecified): the GI50 in the assay with PC-3 was > 100 µM (inactive); in the assay on MCF7 it was > 100 µM (inactive); in the assay on HCT-15, above 100 µM; with MOLT-4 it was > 100 µM (inactive); in the assay on HT-29, > 100 µM (inactive); in the assay on OVCAR-8 it was > 100 µM (inactive). Further, the GI50 in the assay on MDA-MB-435, in the assay with HCC 2998, in the assay with RXF 393, in the assay on SF-539, with HL-60 and with SF-268 was > 100 µM (inactive) in each case. The GI50 in the assay on SF-295, in the assay with Malme-3M, in the assay on OVCAR-3, in the assay with IGROV-1, with EKVX and in the assay with UACC-257 was > 100 µM (inactive) in each case. Also, the GI50 in the assay with BT-549 is > 100 µM (inactive).

As to `CC(Oc1ccc(Cl)cc1Cl)C(=O)NN1C(=O)CSC1c1ccc(Cl)cc1` (stereo unspecified), the GI50 in the assay with PC-3 is 38.5 µM (inactive); in the assay with MCF7, 36.8 µM (inactive); with HCT-15, above 100 µM; with MOLT-4, 21.7 µM (inactive); in the assay on HT-29 it was 70.1 µM (inactive); with OVCAR-8 it was 46.9 µM (inactive). The GI50 is > 100 µM (inactive) in the assay on MDA-MB-435; 54.8 µM (inactive) in the assay with HCC 2998; 27 µM (inactive) in the assay on RXF 393; 20.5 µM (inactive) in the assay on SF-539; 35.3 µM (inactive) with HL-60; 88.7 µM (inactive) with SF-268. Also, the GI50 in the assay on SK-MEL-5 was 49.7 µM (inactive); in the assay with SF-295 it was 50.6 µM (inactive); with OVCAR-3 it was 54.5 µM (inactive); with IGROV-1, 36.1 µM (inactive); in the assay on EKVX, 80 µM (inactive); with UACC-257 it was 48.2 µM (inactive). The GI50 in the assay on BT-549 is 43.7 µM (inactive).

As to `CCCNC(=O)CCC(C)C1CCC2C3C(C[C@H](OC(C)=O)[C@]12C)[C@@]1(C)CCC2(C[C@H]1C[C@H]3OC(C)=O)OOC1(CC[C@]3(C)C4C[C@H](OC(C)=O)[C@]5(C)C(C(C)CCC(=O)NCCC)CCC5C4[C@H](OC(C)=O)C[C@@H]3C1)OO2` (stereo partly specified), the GI50 is > 100 µM (inactive) in the assay on PC-3; > 100 µM (inactive) with MCF7; above 100 µM in the assay with HCT-15; > 100 µM (inactive) with MOLT-4; > 100 µM (inactive) in the assay with HT-29; 23.8 µM (inactive) in the assay with OVCAR-8. Besides, the GI50 is > 100 µM (inactive) in the assay with MDA-MB-435; > 100 µM (inactive) in the assay with HCC 2998; > 100 µM (inactive) in the assay with RXF 393; > 100 µM (inactive) in the assay with HL-60; 32.1 µM (inactive) in the assay with SF-268; 36.8 µM (inactive) in the assay on SK-MEL-5. Further, the GI50 is 60.4 µM (inactive) in the assay with SF-295; 34.6 µM (inactive) with Malme-3M; > 100 µM (inactive) with OVCAR-3; 20.2 µM (inactive) with IGROV-1; 57 µM (inactive) in the assay with EKVX; 31 µM (inactive) with UACC-257. Besides, in the assay with BT-549, the GI50 is > 100 µM (inactive).

With `Cc1c(C)c2c(c(N)c1C#N)C(=O)N(OS(=O)(=O)c1ccccc1)C2=O`, the GI50 in the assay on PC-3 is 35.6 µM (inactive); with MCF7 it was 38 µM (inactive); in the assay with HCT-15, 20.9 µM; in the assay with MOLT-4, 21.4 µM (inactive); in the assay on OVCAR-8, 17.8 µM (inactive); in the assay with MDA-MB-435, 19 µM (inactive). For the same molecule, the GI50 in the assay on HCC 2998 is 38.7 µM (inactive); in the assay on RXF 393 it was 15.2 µM (inactive); in the assay with SF-539, 16.6 µM (inactive); with HL-60 it was 30.1 µM (inactive); in the assay on SF-268, 95.1 µM (inactive); with SK-MEL-5, 44.9 µM (inactive). Also, the GI50 was > 100 µM (inactive) in the assay on SF-295; 16.1 µM (inactive) in the assay on Malme-3M; 22.2 µM (inactive) with OVCAR-3; 18.5 µM (inactive) in the assay on IGROV-1; 18.9 µM (inactive) in the assay with EKVX; 24.4 µM (inactive) in the assay on UACC-257. In the assay on BT-549, the GI50 is 19.9 µM (inactive).

As to `C/C(=N/NC(=O)c1ccccc1Nc1ccccc1C(=O)N/N=C(\C)c1ccc(C)cc1)c1ccc(C)cc1`, the GI50 was 41.7 µM (inactive) in the assay with PC-3; 14.6 µM (inactive) with MCF7; 55 µM in the assay on HCT-15; 37.8 µM (inactive) in the assay on MOLT-4; > 100 µM (inactive) in the assay with HT-29; > 100 µM (inactive) in the assay on OVCAR-8. Besides, the GI50 in the assay with MDA-MB-435 was > 100 µM (inactive); in the assay on HCC 2998, 10.9 µM (inactive); in the assay on RXF 393, 12.2 µM (inactive); in the assay on HL-60, > 100 µM (inactive); in the assay with SF-268, > 100 µM (inactive); in the assay with SK-MEL-5, 42.1 µM (inactive). The GI50 in the assay on SF-295 was 22.9 µM (inactive); in the assay with Malme-3M, 32.5 µM (inactive); in the assay with OVCAR-3 it was 4.62 µM (inactive); in the assay on IGROV-1 it was > 100 µM (inactive); with EKVX it was > 100 µM (inactive); in the assay with UACC-257, > 100 µM (inactive). Also, in the assay with BT-549, the GI50 is > 100 µM (inactive).

Regarding `N#Cc1c2ccc([N+](=O)[O-])cc2c(=O)n2c1[nH]c1ccc(C(F)(F)F)cc12`, the GI50 with PC-3 is > 38.2 µM (inactive); with MCF7 it was 63.4 µM (inactive); with HCT-15 it was 16.1 µM; in the assay on MOLT-4 it was 14.5 µM (inactive); in the assay on HT-29, 11.2 µM (inactive); in the assay with OVCAR-8, 33.1 µM (inactive). For the same molecule, the GI50 with MDA-MB-435 is 54 µM (inactive); with HCC 2998 it was 15.2 µM (inactive); in the assay with SF-539, > 100 µM (inactive); with HL-60, 0.254 µM (active); with SF-268 it was 39.6 µM (inactive); with SK-MEL-5, 29.4 µM (inactive). The GI50 was 14.4 µM (inactive) with SF-295; 41 µM (inactive) with Malme-3M; 18.2 µM (inactive) in the assay on OVCAR-3; 34.2 µM (inactive) with IGROV-1; > 100 µM (inactive) with EKVX; > 88.7 µM (inactive) with UACC-257. The GI50 with BT-549 is 25.2 µM (inactive).

Consider `C[C@H]1C/C=C/[C@H]2[C@@H]3O[C@]3(C)[C@@H](C)[C@H]3[C@H](Cc4ccccc4)NC(=O)[C@]32OC(=O)O/C=C/[C@@](C)(O)C1=O` [CYTOCHALASIN E], for which the GI50 was 0.0141 µM (active) in the assay on PC-3; 0.0292 µM (active) with MCF7; 0.0834 µM in the assay on HCT-15; 8.59 µM (inactive) in the assay on MOLT-4; 0.0194 µM (active) in the assay on HT-29; 23.6 µM (inactive) with OVCAR-8. Further, the GI50 in the assay with MDA-MB-435 is 18.9 µM (inactive); in the assay with HCC 2998, 0.138 µM (active); in the assay with RXF 393 it was 0.0111 µM (active); in the assay with SF-539, 0.0169 µM (active); with HL-60 it was 0.0838 µM (active); in the assay on SF-268, 0.0638 µM (active). In addition, the GI50 is 0.0211 µM (active) with SK-MEL-5; 0.0251 µM (active) with Malme-3M; 0.0975 µM (active) in the assay with OVCAR-3; 0.075 µM (active) with EKVX; 0.263 µM (active) with UACC-257; 0.0392 µM (active) in the assay on BT-549.
